Measurements from the NIST ThermoML archive (doi:10.1021/je700294p).

Legend:
[1] = xn = mol fraction of the nth substance listed; settings: 101 kPa, Liquid
[2] = excess molar enthalpy (molar enthalpy of mixing); xn = mol fraction of the nth substance listed; settings: 101 kPa, Liquid

CCCC[n+]1cccc(C)c1.F[B-](F)(F)F [1-butyl-3-methylpyridinium tetrafluoroborate] + CCCCO
Settings | excess molar enthalpy [kcal/mol] | mass density [kg/m3]
[1], 298.15 K, x1 = 0.0166 | – | 819.7
[1], 298.15 K, x1 = 0.7641 | – | 1136.6
[1], 298.15 K, x1 = 0.8166 | – | 1147.7
[1], 298.15 K, x1 = 0.8558 | – | 1155.7
[1], 298.15 K, x1 = 0.904 | – | 1165.1
[1], 318.15 K, x1 = 0.0191 | – | 805.5
[1], 318.15 K, x1 = 0.6961 | – | 1107.5
[1], 318.15 K, x1 = 0.7777 | – | 1125.9
[1], 318.15 K, x1 = 0.8535 | – | 1141.6
[1], 318.15 K, x1 = 0.9084 | – | 1152.1
[1], 318.15 K, x1 = 0.9479 | – | 1159.4
[2], 318.15 K, x1 = 0.0098 | 0.0361 | –
[2], 318.15 K, x1 = 0.025 | 0.0684 | –
[2], 318.15 K, x1 = 0.0464 | 0.138 | –
[2], 318.15 K, x1 = 0.3603 | 0.681 | –
[2], 318.15 K, x1 = 0.3932 | 0.684 | –
[2], 318.15 K, x1 = 0.445 | 0.677 | –
[2], 318.15 K, x1 = 0.5101 | 0.652 | –
[2], 318.15 K, x1 = 0.5852 | 0.591 | –
[2], 318.15 K, x1 = 0.6705 | 0.503 | –
[2], 318.15 K, x1 = 0.7667 | 0.378 | –
[2], 318.15 K, x1 = 0.8531 | 0.264 | –
[2], 318.15 K, x1 = 0.9346 | 0.125 | –

CCCC[n+]1cccc(C)c1.F[B-](F)(F)F [1-butyl-3-methylpyridinium tetrafluoroborate] + CCO
Settings | excess molar enthalpy [kcal/mol] | mass density [kg/m3]
[1], 298.15 K, x1 = 0.0518 | – | 851.1
[1], 298.15 K, x1 = 0.0719 | – | 872.9
[1], 298.15 K, x1 = 0.1054 | – | 905.6
[1], 298.15 K, x1 = 0.1999 | – | 975.5
[1], 298.15 K, x1 = 0.2539 | – | 1006.2
[1], 298.15 K, x1 = 0.3 | – | 1028.2
[1], 298.15 K, x1 = 0.4054 | – | 1068.6
[1], 298.15 K, x1 = 0.5082 | – | 1098.9
[1], 298.15 K, x1 = 0.5895 | – | 1118
[1], 298.15 K, x1 = 0.664 | – | 1133
[1], 298.15 K, x1 = 0.7275 | – | 1144.5
[1], 298.15 K, x1 = 0.7682 | – | 1151
[1], 318.15 K, x1 = 0.0401 | – | 821.1
[1], 318.15 K, x1 = 0.0671 | – | 851
[1], 318.15 K, x1 = 0.0992 | – | 882.7
[1], 318.15 K, x1 = 0.1497 | – | 924.5
[1], 318.15 K, x1 = 0.2531 | – | 989.5
[1], 318.15 K, x1 = 0.3062 | – | 1015.1
[1], 318.15 K, x1 = 0.4041 | – | 1053
[1], 318.15 K, x1 = 0.5002 | – | 1082.2
[1], 318.15 K, x1 = 0.5998 | – | 1106.3
[1], 318.15 K, x1 = 0.6632 | – | 1118.8
[1], 318.15 K, x1 = 0.7118 | – | 1127.7
[1], 318.15 K, x1 = 0.7904 | – | 1141
[2], 298.15 K, x1 = 0.0052 | 0.0354 | –
[2], 298.15 K, x1 = 0.0159 | 0.0989 | –
[2], 298.15 K, x1 = 0.0279 | 0.148 | –
[2], 298.15 K, x1 = 0.0457 | 0.203 | –
[2], 298.15 K, x1 = 0.0691 | 0.26 | –
[2], 298.15 K, x1 = 0.0972 | 0.312 | –
[2], 298.15 K, x1 = 0.1132 | 0.338 | –
[2], 298.15 K, x1 = 0.1263 | 0.362 | –
[2], 298.15 K, x1 = 0.128 | 0.368 | –
[2], 298.15 K, x1 = 0.145 | 0.396 | –
[2], 298.15 K, x1 = 0.1585 | 0.405 | –
[2], 298.15 K, x1 = 0.1639 | 0.418 | –
[2], 298.15 K, x1 = 0.1838 | 0.445 | –
[2], 298.15 K, x1 = 0.2062 | 0.47 | –
[2], 298.15 K, x1 = 0.2305 | 0.495 | –
[2], 298.15 K, x1 = 0.2577 | 0.515 | –
[2], 298.15 K, x1 = 0.2878 | 0.531 | –
[2], 298.15 K, x1 = 0.3217 | 0.544 | –
[2], 298.15 K, x1 = 0.3623 | 0.546 | –
[2], 298.15 K, x1 = 0.4085 | 0.527 | –
[2], 298.15 K, x1 = 0.4689 | 0.484 | –
[2], 298.15 K, x1 = 0.5396 | 0.425 | –
[2], 298.15 K, x1 = 0.6277 | 0.348 | –
[2], 298.15 K, x1 = 0.7386 | 0.257 | –
[2], 298.15 K, x1 = 0.8712 | 0.14 | –
[2], 298.15 K, x1 = 0.9405 | 0.0727 | –
[2], 318.15 K, x1 = 0.0123 | 0.0626 | –
[2], 318.15 K, x1 = 0.0273 | 0.129 | –
[2], 318.15 K, x1 = 0.0472 | 0.201 | –
[2], 318.15 K, x1 = 0.0704 | 0.269 | –
[2], 318.15 K, x1 = 0.098 | 0.342 | –
[2], 318.15 K, x1 = 0.1279 | 0.411 | –
[2], 318.15 K, x1 = 0.1612 | 0.475 | –
[2], 318.15 K, x1 = 0.1789 | 0.508 | –
[2], 318.15 K, x1 = 0.2034 | 0.544 | –
[2], 318.15 K, x1 = 0.2335 | 0.577 | –
[2], 318.15 K, x1 = 0.2681 | 0.605 | –
[2], 318.15 K, x1 = 0.3063 | 0.627 | –
[2], 318.15 K, x1 = 0.3498 | 0.644 | –
[2], 318.15 K, x1 = 0.4055 | 0.645 | –
[2], 318.15 K, x1 = 0.4787 | 0.615 | –
[2], 318.15 K, x1 = 0.5648 | 0.549 | –
[2], 318.15 K, x1 = 0.6576 | 0.451 | –
[2], 318.15 K, x1 = 0.7668 | 0.326 | –
[2], 318.15 K, x1 = 0.881 | 0.184 | –
